# Laboratory results published in patent publication US6086849A, “Technetium-99m labeled peptides for imaging” (Diatide, Inc., priority 1995, dated 2000).
# Columns and labels:
# [1] = system: deep vein thrombus (femoral vein, embolization coil); assay: In vivo imaging of deep vein thrombosis in a canine model; parameters: species or system dog
# Source text: Mongrel dogs (25-35 lb., fasted overnight) were sedated with a combination of ketamine and aceprozamine intramuscularly and then anesthetized with sodium pentobarbital intravenously. An 18-gauge angiocath was inserted in the distal half of the right femoral vein and an 8 mm Dacron®-entwinedstainless steel embolization coil (Cook Co., Bloomington Ind.) was placed in the femoral vein at approximately mid-femur in each animal. The catheter was removed, the wound sutured and the placement of the coil documented by X-ray. The animals were then allowed to recover overnight.
# One day following coil placement, each animal was re-anesthetized, intravenous saline drips placed in each foreleg and a urinary bladder catheter inserted to collect urine. The animal was placed supine under a gamma camera which was equipped with a low-energy, all purpose collimator and photopeaked for Tc-99m. Images were acquired on a NucLear Mac computer system.
# Tc-99m labeled P357 [(CH2 CO--YD.Apc.GDCGGCAcm GCAcm GGC.amide)2 -[BAT-BS]] [185-370 MBq (5-10 mCi) Tc-99m and 0.2-0.4 mg P357] was injected into one foreleg intravenous line at its point of insertion. The second line was maintained for blood collection. Anterior images over the legs were acquired for 500,000 counts or 20 min (whichever was shorter), at approximately 10-20 min, and at approximately 1, 2, 3 and 4 h post-injection. Following the collection of the final image, each animal was deeply anesthetized with pentobarbital. Two blood samples were collected on a cardiac puncture using a heparinized syringe followed by a euthanazing dose of saturated potassium chloride solution administered by intercardiac or bolus intravenous injection. The femoral vein containing the thrombus and samples of thigh muscle were then carefully dissected out. The thrombus was then dissected free of the vessel and placed in a pre-weighed test tube. The thrombus samples were then weighed and counted in a gamma well counter in the Tc-99m channel. Known fractions of the injected doses were counted as well.
# Fresh thrombus weight, percent injected dose (%ID)/g in the thrombus and blood obtained just prior to euthanasia and thrombus/blood and thrombus/muscle ratios determined. Thrombus/background ratios were determined by analysis of the counts/pixel measured in regions-of-interest(ROI) drawn over the thrombus and adjacent muscle from computer-stored images.
# [2] = system: atherosclerotic plaque; format: in vivo, New Zealand White rabbit
# Experimental: Twenty-two New Zealand White (NZW) rabbits of both sexes and weighing 2-3 kg were divided into two groups. The control group consisted of 6 rabbits that were housed and fed commercial rabbit chow (Purina). Sixteen rabbits, the HC group, were fed a standardized, cholesterol-rich diet (rabbit chow mixed to a 1% w/w concentration of cholesterol) from seven weeks until 28 weeks of age. All animals were given water ad libitum.
# Tc-99m labeled P215 ([BAT]RALVDTLKFVTQAEGAK.amide) was prepared as described above. Approximately 250-400 μg of peptide was labeled with 140-160 mCi of Tc-99m and prepared in unit doses of 7-8 mCi (12.5-20.0 μg/rabbit; 6-7 μg/kg) in 0.2 mL volume doses. Adult rabbits were dosed with Tc-99m labeled peptide intravenously in a lateral ear vein by slow bolus infusion (approximately 0.1 mL/min). A gamma camera fitted with a pin-hole collimator (5 mm aperture) and energy window set for Tc-99m and programmed to accumulate 500,000 counts or scan for a desired time. Shortly before imaging, animals were anesthetized with a mixture of ketamine and xylazine (5:1, 1 mL/kg intramuscularly).
# Gamma camera images were collected at 40-45° just above the heart (left anterior oblique [LAO] view) to delineate the aortic arch and view the descending aorta. Images were acquired at 1 and 2 h and occasionally at 3 and 5 h after injection. Supplementary anesthesia was injected as needed prior to each image collection.
# At 2.5 h (after a 2 h scan), animals were sacrificed with an intravenous dose of sodium pentobarbital. Upon necropsy, the aorta was removed and branching vessels dissected free from the aortic valve to the mid-abdominal region. Using a parallel hole collimator, the aorta was imaged ex corpora. Next, the aortae were opened longitudinally and stained with Sudan IV, thereby turning atherosclerotic plaque a deep red brick color. Lipid-free and uninjured aortic endothelium retains its normal, glistening white-pink appearance under these conditions.
# [3] = Tc-99m labeled, i.v., tissues after final image (about 4 h), average ± SD
Substance,"% ID/g Thrombus ([1]; Tc-99m labeled, i.v., thrombus dissected after final image (about 4 h), average ± SD)","Thrombus/Blood ratio [1, 3]","Thrombus/Muscle ratio [1, 3]","Thrombus/Background ratio ([1]; counts/pixel in ROI over thrombus and adjacent muscle from images, Tc-99m labeled, i.v., n = 1)",Time to clearly established localization of thrombus ([1]; post-injection),"Time of first indications of labeled peptide uptake in images ([1]; post-injection, anterior view over hind legs of one dog (FIG. 4))","Time to unequivocal localization in images ([1]; post-injection, one dog (FIG. 4), persisted until the end of the imaging period)","Persistence of thrombus localization ([1]; post-injection, with increasing contrast and focal definition)","Radioactivity accumulation in HC aortae imaged ex corpora ([2]; HC-fed rabbits, aorta removed at 2.5 h)",Correlation of in vivo and ex corpora images with Sudan IV deposition patterns ([2]; HC-treated rabbit aortae),Imaging of atherosclerotic plaque (uptake) ([2]; Tc-99m labeled),Uptake in normal aortic tissue ([2]; control (plaque-free) aortae),"Principal clearance pathway ([2]; rabbit, in vivo)","Systemic clearance ([2]; rabbit, in vivo, iv)"
(CH2 CO--YD.Apc.GDCGGCAcm GCAcm GGC.amide)2 -[BAT-BS] [Compound P357],0.016 ± 0.005 % ID/g,5.6 ± 1.4,17 ± 4.7,2.3,≤ 1 h,23 min,≤ 71 min,~4 h,,,,,,
[BAT]RALVDTLKFVTQAEGAK.amide [Compound P215],,,,,,,,,greatest deposition in the region of the aortic arch,Positive correlations,high uptake,minimal uptake,hepatobiliary system,rapid systemic clearance
